# Laboratory results: patent publication US8501786B2, “Hydroxymethyl pyrrolidines as beta 3 adrenergic receptor agonists” (Merck Sharp & Dohme Corp., priority 2009, dated 2013)
# Where a name gives a salt, the structure may show the parent alone.
# Target: T1, human β3 adrenergic receptor (Homo sapiens, UniProt P13945)
# T1 construct: stably transfected with the cloned β-adrenergic receptor (β1, β2 or β3); expressed in transfected cells; host or cells: Chinese hamster ovary (CHO) cells, stably transfected
# Assay: Functional assay: cAMP production (LANCE TR-FRET) in CHO cells stably transfected with cloned β3 adrenergic receptor
# Assay type: cell-based
# Details: Table 3; cAMP production, CHO cells expressing human β3 AR; read-out: Human β3 functional
# Experimental: Functional Assay: cAMP production in response to ligand is measured according to Barton, et al. (1991, Agonist-induced desensitization of D2 dopamine receptors in human Y-79 retinoblastoma cells. Mol. Pharmacal. v3229:650-658) modified as follows, cAMP production is measured using a homogenous time-resolved fluorescence resonance energy transfer immunoassay (LANCE™, Perkin Elmer) according to the manufacture's instructions. Chinese hamster ovary (CHO) cells, stably transfected with the cloned β-adrenergic receptor (β1, β2 or β3) are harvested after 3 days of subculturing. Harvesting of cells is done with Enzyme-free Dissociation Media (Specialty Media). Cells are then counted and resuspended in assay buffer (Hank's Balanced salt solution supplemented with 5 mM HEPES, […]) containing a phosphodiesterase inhibitor (IBMX, 0.6 mM). The reaction is initiated by mixing 6,000 cells in 6 μL with 6 μL Alexa Fluor labeled cAMP antibody (LANCE™ kit) which is then added to an assay well containing 12 μL of compound (diluted in assay buffer to 2× final concentration). The reaction proceeds for 30 min at room temperature and is terminated by the addition of 24 ul detection buffer (LANCE™ kit). The assay plate is then incubated for 1 h at room temperature and time-resolved fluorescence measured on a Perkin Elmer Envision reader or equivalent. The unknown cAMP level is determined by comparing fluorescence levels to a cAMP standard curve.
# The non-selective, full agonist β-adrenergic ligand isoproterenol is used at all three receptors to determine maximal stimulation. The human β3 adrenergic receptor (AR) selective ligand (S)-N-[4-[2-[[2-hydroxy-3-(4-hydroxyphenoxy)propyl]amino]ethyl]-phenyl]-4-iodobenzenesulfonamide is used as a control in all assays. Isoproterenol is titrated at a final concentration in the assay of 10^-10 M to 10-5 and the selective ligand (S)-N-[4-[2-[[2-hydroxy-3-(4-hydroxyphenoxy)propyl]amino]ethyl]phenyl]-4-iodobenzenesulfonamide is titrated at the β3 receptor at concentration of 10^-10 M to 10^-5 M. Unknown ligands are titrated at all 3 β-adrenergic receptor subtypes at a final concentration in the assay of 10^-10 M to 10^-5 M to determine the EC50. The EC50 is defined as the concentration of compound that gives 50% activation of its own maximum. Data are analyzed using Microsoft Excel and Graphpad Prism or an internally developed data analysis software package.
# T1 sequence (P13945 whole entry): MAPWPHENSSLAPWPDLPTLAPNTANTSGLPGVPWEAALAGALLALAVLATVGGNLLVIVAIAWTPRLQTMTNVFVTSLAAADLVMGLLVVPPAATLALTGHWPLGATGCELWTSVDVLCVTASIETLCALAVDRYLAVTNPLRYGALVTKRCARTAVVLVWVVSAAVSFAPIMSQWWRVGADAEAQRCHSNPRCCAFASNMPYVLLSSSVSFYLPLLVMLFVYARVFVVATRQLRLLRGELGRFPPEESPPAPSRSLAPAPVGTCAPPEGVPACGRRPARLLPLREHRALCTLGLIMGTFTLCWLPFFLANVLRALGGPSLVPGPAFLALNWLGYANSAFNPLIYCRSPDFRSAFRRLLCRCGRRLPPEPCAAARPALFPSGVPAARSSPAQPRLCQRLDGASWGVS
row,SMILES,EC50
1,"CCC(C(=O)Nc1ccc(CC2CC[C@H]([C@H](O)c3cccnc3)N2)cc1)n1cccn1 (single isomer, unassigned) [Example 185]",1 to 10 nM
2,"O=C(Nc1ccc(CC2CC[C@H]([C@H](O)c3cccnc3)N2)cc1)C1CCc2sc(Cl)nc21 (single isomer, unassigned) [Example 186]",< 1 nM
3,"O=C(Nc1ccc(CC2CC[C@H]([C@H](O)c3cccnc3)N2)cc1)C1CCc2sc(Cl)nc21 (single isomer, unassigned) [Example 187]",11 to 100 nM
4,"O=C(Nc1ccc(CC2CC[C@H]([C@H](O)c3cccnc3)N2)cc1)C1CCc2sc(CO)nc21 (single isomer, unassigned) [Example 188]",1 to 10 nM
5,"O=C(Nc1ccc(CC2CC[C@H]([C@H](O)c3cccnc3)N2)cc1)C1CCc2sc(CO)nc21 (single isomer, unassigned) [Example 189]",11 to 100 nM
6,"O=C(Nc1ccc(CC2CC[C@H]([C@H](O)c3cccnc3)N2)cc1)C1CCc2scnc21 (single isomer, unassigned) [Example 190]",< 1 nM
7,"O=C(Nc1ccc(CC2CC[C@H]([C@H](O)c3cccnc3)N2)cc1)C1CCc2scnc21 (single isomer, unassigned) [Example 191]",11 to 100 nM
8,"O=C(Nc1ccc(CC2CC[C@H]([C@H](O)c3cccnc3)N2)cc1)C1CCc2nc3ccccc3c(=O)n21 (single isomer, unassigned) [Example 192]",11 to 100 nM
9,"O=C(Nc1ccc(CC2CC[C@H]([C@H](O)c3cccnc3)N2)cc1)C1CCc2nc3ccccc3c(=O)n21 (single isomer, unassigned) [Example 193]",1 to 10 nM
10,"O=C(Nc1ccc(CC2CC[C@H]([C@H](O)c3cccnc3)N2)cc1)[C@@H]1CCc2ncnn21 (single isomer, unassigned) [Example 194]",11 to 100 nM
11,"CC(C(=O)Nc1ccc(CC2CC[C@H]([C@H](O)c3cccnc3)N2)cc1)c1cscn1 (single isomer, unassigned) [Example 195]",< 1 nM
12,"CC(C(=O)Nc1ccc(CC2CC[C@H]([C@H](O)c3cccnc3)N2)cc1)c1cscn1 (single isomer, unassigned) [Example 196]",11 to 100 nM
13,"O=C1CC[C@@H](C(=O)Nc2ccc(CC3CC[C@H]([C@H](O)c4cccnc4)N3)cc2)N1 (single isomer, unassigned) [Example 197]",101 to 1000 nM
14,"CC(C(=O)Nc1ccc(CC2CC[C@H]([C@H](O)c3cccnc3)N2)cc1)n1cc(C(=O)O)nn1 (single isomer, unassigned) [Example 198]",11 to 100 nM
15,"CC(C(=O)Nc1ccc(CC2CC[C@H]([C@H](O)c3cccnc3)N2)cc1)n1cc(C(=O)O)nn1 (single isomer, unassigned) [Example 199]",11 to 100 nM
16,"CC(C(=O)Nc1ccc(CC2CC[C@H]([C@H](O)c3cccnc3)N2)cc1)n1cc(C(N)=O)nn1 (single isomer, unassigned) [Example 200]",11 to 100 nM
17,"CC(C(=O)Nc1ccc(CC2CC[C@H]([C@H](O)c3cccnc3)N2)cc1)n1cc(C(N)=O)nn1 (single isomer, unassigned) [Example 201]",1 to 10 nM
18,"CC(C(=O)Nc1ccc(CC2CC[C@H]([C@H](O)c3cccnc3)N2)cc1)n1ccc(C(N)=O)n1 (single isomer, unassigned) [Example 202]",1 to 10 nM
19,"CC(C(=O)Nc1ccc(CC2CC[C@H]([C@H](O)c3cccnc3)N2)cc1)n1ccc(C(N)=O)n1 (single isomer, unassigned) [Example 203]",101 to 1000 nM

row,SMILES,EC50
1,"CCC(C(=O)Nc1ccc(CC2CC[C@H]([C@H](O)c3cccnc3)N2)cc1)c1cscn1 (single isomer, unassigned) [Example 204]",1 to 10 nM
2,"CCC(C(=O)Nc1ccc(CC2CC[C@H]([C@H](O)c3cccnc3)N2)cc1)c1cscn1 (single isomer, unassigned) [Example 205]",11 to 100 nM
3,"CC(C(=O)Nc1ccc(CC2CC[C@H]([C@H](O)c3cccnc3)N2)cc1)n1nncc1C(=O)O (single isomer, unassigned) [Example 206]",1 to 10 nM
4,"CC(C(=O)Nc1ccc(CC2CC[C@H]([C@H](O)c3cccnc3)N2)cc1)n1nncc1C(=O)O (single isomer, unassigned) [Example 207]",11 to 100 nM
5,"COC(=O)c1cnnn1C(C)C(=O)Nc1ccc(CC2CC[C@H]([C@H](O)c3cccnc3)N2)cc1 (single isomer, unassigned) [Example 208]",1 to 10 nM
6,"COC(=O)c1cnnn1C(C)C(=O)Nc1ccc(CC2CC[C@H]([C@H](O)c3cccnc3)N2)cc1 (single isomer, unassigned) [Example 209]",101 to 1000 nM
7,"Cc1cn(C(C)C(=O)Nc2ccc(CC3CC[C@H]([C@H](O)c4cccnc4)N3)cc2)nn1 (single isomer, unassigned) [Example 210]",11 to 100 nM
8,"Cc1cn(C(C)C(=O)Nc2ccc(CC3CC[C@H]([C@H](O)c4cccnc4)N3)cc2)nn1 (single isomer, unassigned) [Example 211]",11 to 100 nM
9,"Cc1cnnn1C(C)C(=O)Nc1ccc(CC2CC[C@H]([C@H](O)c3cccnc3)N2)cc1 (single isomer, unassigned) [Example 212]",101 to 1000 nM
10,"Cc1cnnn1C(C)C(=O)Nc1ccc(CC2CC[C@H]([C@H](O)c3cccnc3)N2)cc1 (single isomer, unassigned) [Example 213]",1 to 10 nM
11,"CC(C(=O)Nc1ccc(CC2CC[C@H]([C@H](O)c3cccnc3)N2)cc1)c1ccn(C)n1 (single isomer, unassigned) [Example 214]",11 to 100 nM
12,"CC(C(=O)Nc1ccc(CC2CC[C@H]([C@H](O)c3cccnc3)N2)cc1)c1ccn(C)n1 (single isomer, unassigned) [Example 215]",101 to 1000 nM
13,"Cc1nnc2c(C(C)C(=O)Nc3ccc(CC4CC[C@H]([C@H](O)c5cccnc5)N4)cc3)cccn12 (single isomer, unassigned) [Example 216]",11 to 100 nM
14,"Cc1nnc2c(C(C)C(=O)Nc3ccc(CC4CC[C@H]([C@H](O)c5cccnc5)N4)cc3)cccn12 (single isomer, unassigned) [Example 217]",11 to 100 nM
15,"CC(C(=O)Nc1ccc(CC2CC[C@H]([C@H](O)c3cccnc3)N2)cc1)n1cnc2ccccc2c1=O (single isomer, unassigned) [Example 218]",1 to 10 nM
16,"CC(C(=O)Nc1ccc(CC2CC[C@H]([C@H](O)c3cccnc3)N2)cc1)n1cc(C(N)=O)cn1 (single isomer, unassigned) [Example 219]",1 to 10 nM
17,"COCCC(C(=O)Nc1ccc(CC2CC[C@H]([C@H](O)c3cccnc3)N2)cc1)n1cccn1 (single isomer, unassigned) [Example 220]",1 to 10 nM
18,"COCCC(C(=O)Nc1ccc(CC2CC[C@H]([C@H](O)c3cccnc3)N2)cc1)n1cccn1 (single isomer, unassigned) [Example 221]",1 to 10 nM

# Same assay, conditions: Table 5; human β3 functional activity given as ranges; read-out: Human β3 functional
row,SMILES,EC50
1,"O=C(Nc1ccc(CC2CC[C@H]([C@H](O)c3cccnc3)N2)cc1Br)C1CCc2sc(I)nc21 (single isomer, unassigned) [Example 243]",101 to 1000 nM
2,"O=C(Nc1ccc(CC2CC[C@H]([C@H](O)c3cccnc3)N2)cc1Br)C1CCc2sc(I)nc21 (single isomer, unassigned) [Example 244]",11 to 100 nM

# Same assay, conditions: cAMP production, CHO cells expressing human β3 AR; read-out: human Beta-3 agonist functional activity
row,SMILES,EC50
1,"O=C(Nc1ccc(CC2CCC(C(O)c3cccnc3)N2)cc1Br)C1CCc2sc(Br)nc21 (single isomer, unassigned) [Example 240, (4S or 4R)-2-bromo-N-[2-bromo-4-({(2S,5R)-5-[(R)-hydroxy(pyridin-3-yl)methyl]pyrrolidin-2-yl}methyl)phenyl]-5,6-dihydro-4H-cyclopenta[d][1,3]thiazole-4-carboxamide]",< 1000 nM
2,"O=C(Nc1ccc(CC2CCC(C(O)c3cccnc3)N2)cc1Br)C1CCc2sc(Br)nc21 (single isomer, unassigned) [Example 241, (4S or 4R)-2-bromo-N-[2-bromo-4-({(2S,5R)-5-[(R)-hydroxy(pyridin-3-yl)methyl]pyrrolidin-2-yl}methyl)phenyl]-5,6-dihydro-4H-cyclopenta[d][1,3]thiazole-4-carboxamide]",< 100 nM
3,"Nc1nc(CC(=O)Nc2ccc(C[C@@H]3CC[C@H]([C@H](O)c4cccnc4)N3)cc2)cs1 [Example 1, 2-2-Amino-1,3-thiazol-4-yl)-N-[4-({(2S,5R)-5-[(R)-hydroxy(pyridin-3-yl)methyl]pyrrolidin-2-yl}methyl)phenyl]acetamide, trfluoroacetic acid salt]",< 10 nM
